In patent publication US20230263822A1, “MODULATION OF FACTOR 11 EXPRESSION” (Ionis Pharmaceuticals, Inc., priority 2008, published 2023):

What was measured:
Factor 11 mRNA = Factor 11 mRNA in cynomolgus monkey liver, day 55 (Example 46); type: in vivo, cynomolgus monkeys; settings: cynomolgus monkeys, 25 mg/kg
In short: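 Male and female cynomolgus monkeys (2+2 per group) received antisense oligonucleotides sc at 25 mg/kg, three times weekly in week 1 and twice weekly in weeks 2-8. PBS-dosed animals served as control. Factor 11 mRNA in liver on day 55 was measured by real-time PCR (primer probe set LTS00301) as percent inhibition relative to PBS control.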

[1] = Liver function, ALT, AST, bilirubin in cynomolgus monkeys (Example 46); type: in vivo; settings: plasma
In short: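 Male and female cynomolgus monkeys (2+2 per group) given antisense oligonucleotides subcutaneously at 25 mg/kg, three times weekly in week 1 then twice weekly through week 8; PBS controls on the same schedule. Plasma ALT and AST measured in IU/L and bilirubin in mg/dL.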

[2] = Kidney function, BUN, urine protein to creatinine ratio in cynomolgus monkeys (Example 46); type: in vivo
In short: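 Male and female cynomolgus monkeys (2+2 per group) received antisense oligonucleotides at 25 mg/kg subcutaneously, three times weekly in week 1 and then twice weekly through week 8; PBS-dosed controls followed the same schedule. Urine was collected on several days, and the protein to creatinine ratio was calculated on day 49.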

[3] = Hematology assays in cynomolgus monkeys (Example 46); type: in vivo
In short: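 Two male and two female monkeys per group received antisense oligonucleotide subcutaneously at 25 mg/kg, three times weekly in week 1 then twice weekly through week 8; PBS controls dosed identically. Blood sampled pre-dose and repeatedly during dosing for PT, aPTT and hematologic factors; necropsy on day 55.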

[4] = test system: IL-1β, IL-6, IFN-γ, TNF-α, IL-8, MIP-1α, MCP-1, MIP-1β, RANTES; assay: Cytokine and chemokine assays in cynomolgus monkeys (Example 46); type: in vivo
In short: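 Male and female monkeys, four per group, received antisense oligonucleotide s.c. at 25 mg/kg three times weekly in week 1, then twice weekly through week 8, against a PBS control. Blood was sampled 14 days pre-dose and on day 55, using primate antibodies (IL-1β, IL-6, IFN-γ, TNF-α) or cross-reacting human antibodies (others).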

[5] = day-14 (before start of treatment)

## ISIS 416858: MOE gapmer, nucleobases 1275 to 1318 of SEQ ID NO: 1 (Table 8) (antisense ACGGCATTGGTGCACAGTTT; MOE gapmer, wing and gap sizes not given here)
Factor 11 mRNA
  Factor 11 mRNA in liver vs PBS control: significant reduction of Factor 11 mRNA
[1]; Day 31
  ALT: 46 IU/L
  AST: 60 IU/L
  Bilirubin: 0.16 mg/dL
[1]; Day 55
  ALT: 58 IU/L
  AST: 69 IU/L
  Bilirubin: 0.16 mg/dL
[1]; Day −5
  ALT: 66 IU/L
  AST: 100 IU/L
  Bilirubin: 0.23 mg/dL
[1]; Day −14
  ALT: 43 IU/L
  AST: 64 IU/L
  Bilirubin: 0.25 mg/dL
[2]; Day 31
  BUN levels: 23 mg/dL
[2]; Day 55
  BUN levels: 24 mg/dL
[2]; Day −5 (before start of treatment)
  BUN levels: 24 mg/dL
[2]; Day −14 (before start of treatment)
  BUN levels: 25 mg/dL
[2]; urine, day 49
  Urine protein/creatinine ratio: 0.05
[3]; Day 17
  HCT: 43%
  MCH: 23.1 pg
  MCHC: 29.9 g/dL
  MCV: 78 fL
  RBC count: 5.6e+06 µL⁻¹
  WBC count: 10000 µL⁻¹
  hemoglobin content: 13.0 g/dL
  monocytes: 4.0%
  neutrophils: 54%
  platelet count: 358 ×100/μL
[3]; Day 31
  HCT: 43%
  MCH: 23.0 pg
  MCHC: 31.0 g/dL
  MCV: 76 fL
  RBC count: 5.6e+06 µL⁻¹
  WBC count: 9000 µL⁻¹
  hemoglobin content: 12.8 g/dL
  monocytes: 4.7%
  neutrophils: 54%
  platelet count: 289 ×100/μL
[3]; Day 45
  HCT: 41%
  MCH: 22.2 pg
  MCHC: 30.3 g/dL
  MCV: 75 fL
  RBC count: 5.5e+06 µL⁻¹
  WBC count: 8000 µL⁻¹
  hemoglobin content: 12.3 g/dL
  monocytes: 4.6%
  neutrophils: 61%
  platelet count: 287 ×100/μL
[3]; Day 55
  HCT: 39%
  MCH: 22.8 pg
  MCHC: 30.4 g/dL
  MCV: 75 fL
  RBC count: 5.3e+06 µL⁻¹
  WBC count: 9000 µL⁻¹
  hemoglobin content: 12.0 g/dL
  monocytes: 4.6%
  neutrophils: 73%
  platelet count: 257 ×100/μL
[3]; Day-5
  HCT: 44%
  MCH: 23.5 pg
  MCHC: 29.8 g/dL
  MCV: 79 fL
  RBC count: 5.5e+06 µL⁻¹
  WBC count: 11000 µL⁻¹
  hemoglobin content: 13.0 g/dL
  monocytes: 2.7%
  neutrophils: 84%
  platelet count: 433 ×100/μL
[3]; Day-14
  HCT: 41%
  MCH: 23.2 pg
  MCHC: 31.1 g/dL
  MCV: 75 fL
  RBC count: 5.5e+06 µL⁻¹
  WBC count: 10000 µL⁻¹
  hemoglobin content: 12.8 g/dL
  monocytes: 2.0%
  neutrophils: 65%
  platelet count: 369 ×100/μL
[4]; day 55
  IFN-γ level: 9 pg/mL
  IL-1ß level: 28 pg/mL
  IL-6 level: 1 pg/mL
  IL-8 level: 167 pg/mL
  MCP-1 level: 512 pg/mL
  MIP-1ß level: 47 pg/mL
  MIP-1α level: 11 pg/mL
  RANTES level: 5925 pg/mL
  TNF-α level: 15 pg/mL
[4]; [5]
  IFN-γ level: 32 pg/mL
  IL-1ß level: 103 pg/mL
  IL-6 level: 0 pg/mL
  IL-8 level: 224 pg/mL
  MCP-1 level: 328 pg/mL
  MIP-1ß level: 37 pg/mL
  MIP-1α level: 11 pg/mL
  RANTES level: 6521 pg/mL
  TNF-α level: 4 pg/mL
